How the values were obtained:
Type in all cases: in vivo
[1] = system: Aedes aegypti strain MONHEIM; assay: Aedes aegypti test (AEDSAE surface treatment & contact assay); conditions: exposure 30 minutes, 24 hours after contact, read-out: efficacy (mortality); for mortality at 4 mg/m2: surface concentration 4 mg/m^2, glazed tile; for mortality at 20 mg/m2: surface concentration 20 mg/m^2, glazed tile
Protocol: Aedes aegypti Test (AEDSAE Surface Treatment & Contact Assay) Solvent: Aceton+2000 ppm rapeseed oil methyl ester (RME)
(§1) In order to produce a sufficient, active ingredient containing solution it is necessary to solve the test compound in the solvent-mix (acetone at 2 mg/ml/RME 2000 ppm). This solution is pipetted onto a glazed tile and after evaporation of the acetone, adult mosquitoes of the species Aedes aegypti strain MONHEIM are placed onto the dried surface. The exposure time is 30 minutes. Mortality in percent (%) is determined 24 hours after contact of the insects to the treated surface. 100% mortality means that all tested insects are dead, whereas 0% means that no insect died.

Diabrotica balteata = Diabrotica balteata spray test; conditions: 168 h, wheat seeds, larvae, after 7 days, read-out: activity (efficacy: 100% means all seedlings have grown up like in the untreated, uninfected control); for pest or weed control at 32 µg/disc, 100 g/ha: application rate 100 g/ha (=32 μg/well); for pest or weed control at 160 µg/disc, 500 g/ha: application rate 500 g/ha (=160 μg/well)
In short: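 Wheat seedlings, germinated 1 day on agar, were sprayed with compound in acetone/DMF diluted in water containing emulsifier, then infested with 10-20 Diabrotica balteata larvae. After 7 days efficacy in % was scored: 100% means seedlings grew like the untreated, uninfected control; 0% means none grew.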

[2] = system: Musca domestica strain WHO—N; assay: Musca domestica test (MUSCDO surface treatment & contact assay); conditions: exposure 30 minutes, 24 hours after contact, read-out: efficacy (mortality); for mortality at 20 mg/m2: surface concentration 20 mg/m^2, glazed tile; for mortality at 4 mg/m2: surface concentration 4 mg/m^2, glazed tile
Protocol: Musca domestica Test (MUSCDO Surface Treatment & Contact Assay) Solvent: Aceton+2000 ppm rapeseed oil methyl ester (RME)
as §1, with “flies” for “mosquitoes”, “Musca domestica” for “Aedes aegypti”, “WHO—N” for “MONHEIM”

Rhipicephalus microplus [3] = assay: Rhipicephalus (Boophilus) microplus injection test (BOOPMI Inj); conditions: 168 h, injection into adult engorged female ticks, egg deposition after 7 days, read-out: activity (efficacy: 100% means all eggs are infertile); for pest or weed control at 0.004 mg: application rate 4 μg/tick; for pest or weed control at 0.02 mg: application rate 20 μg/tick
In short: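 Five engorged adult female R. microplus ticks injected into the abdomen with 1 μL of compound diluted in DMSO, then kept in a climate chamber. Fertile egg deposition checked after 7 days; eggs without visible fertility held until hatching at about 42 days. Efficacy: 100% = all eggs infertile, 0% = all fertile.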

Rhipicephalus microplus [4] = assay: Rhipicephalus (Boophilus) microplus in-vitro contact test, larval cattle tick, strain Parkhurst (BOOPMI Cont); conditions: application rate 5 μg/cm^2 (=500 g/ha), tick larvae, after 48 hours, read-out: activity (efficacy: 100% means all larvae are dead or moribund)
In short: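 Acetone solutions dried onto glass tube walls (900 ppm giving 5 μg/cm^2); 20-50 pyrethroid-resistant Parkhurst larvae added per tube and held 48 h at 27° C., 85% relative humidity. Efficacy scored by negative geotaxis as % dead or moribund larvae.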

Spodoptera frugiperda = Spodoptera frugiperda spray test; conditions: in Zea mays, 168 h, read-out: activity (mortality)
In short: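 Maize leaf sections were sprayed with compound formulated in acetone/DMF and diluted in water containing 1000 ppm emulsifier. Dried leaves were infested with fall armyworm larvae, and percent mortality was scored after 7 days.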

Ctenocephalides felis [5] = assay: Ctenocephalides felis oral test (CTECFE Oral); conditions: 48 h, read-out: activity (mortality)
Protocol: Ctenocephalides felis—Oral Test (CTECFE Oral) Solvent: dimethyl sulfoxide
To produce a suitable preparation of active compound, 10 mg of active compound are dissolved in 0.5 mL solvent, and the concentrate is diluted with cattle blood to the desired concentration.
Approximately 20 adult unfed cat fleas (Ctenocephalides felis) are placed in flea chambers. The blood chamber, sealed with parafilm on the bottom, are filled with cattle blood supplied with compound solution and placed on the gauze covered top of the flea chamber, so that the fleas are able to suck the blood. The blood chamber is heated to 37° C. whereas the flea chamber is kept at room temperature.
After 2 days mortality in % is determined. 100% means all the fleas have been killed; 0% means none of the fleas have been killed.

Myzus persicae = Myzus persicae oral test; conditions: 120 h, read-out: activity (mortality)
Protocol: Myzus persicae—Oral Test Solvent: 100 parts by weight acetone
To produce a suitable preparation of active compound, 1 part by weight of active compound is mixed with the stated amount of solvent, and the concentrate is diluted with water to the desired concentration.
50 μL compound solution is filled in microtiter plates and 150 μL IPL41 insect medium (33%+15% sugar) is added to obtain a total volume of 200 μL per well. Afterwards the plates are sealed with parafilm through which a mixed population of the green peach aphid (Myzus persicae) can suck on the compound preparation.
After 5 days mortality in % is determined. 100% means all aphids have been killed and 0% means none of the aphids have been killed.

Ctenocephalides felis [6] = assay: Ctenocephalides felis in-vitro contact test, adult cat flea (CTECFE Cont); conditions: application rate 5 μg/cm^2 (=500 g/ha), adult cat fleas, after 48 hours, read-out: activity (efficacy: 100% means all fleas are dead or moribund)
Protocol: Ctenocephalides felis—In-Vitro Contact Tests Adult Cat Flea (CTECFE Cont)
9 mg compound is solved in 1 mL acetone and diluted with acetone to the desired concentration. 250 μL of the test solution is filled in 25 mL glass test tubes and homogeneously distributed on the inner walls by rotation and tilting on a shaking device (2 h at 30 rpm). With a compound concentration of 900 ppm, an inner surface of 44.7 cm^2 and a homogeneous distribution, a dose of 5 μg/cm^2 is achieved.
After the solvent has evaporated, each test tube is filled with 5-10 adult cat fleas (Ctenocephalides felis), closed with a perforated lid and incubated in a lying position at room temperature and relative humidity. After 48 hours efficacy is determined. The fleas are patted on the ground of the tubes and are incubated on a heating plate at 45-50° C. for at most 5 minutes. Immotile or uncoordinated moving fleas, which are not able to escape the heat by climbing upwards, are marked as dead or moribund.
An efficacy of 100% means all fleas are dead or moribund; 0% means no fleas are dead or moribund.

Rhipicephalus sanguineus = Rhipicephalus sanguineus in-vitro contact test, adult brown dog ticks (RHIPSA Cont); conditions: 48 h, after 48 hours, read-out: activity (efficacy: 100% means all ticks are dead or moribund); for pest or weed control at 1 µg/cm2, 100 g/ha: application rate 1 μg/cm^2 (=100 g/ha); for pest or weed control at 5 µg/cm2, 500 g/ha: application rate 5 μg/cm^2 (=500 g/ha)
In short: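 Mortality of adult R. sanguineus was judged 48 h after contact with acetone-applied residues on glass tube walls. Ticks that stayed immotile or moved without coordination when heated to 45–50 °C (max 5 min) counted as dead or moribund.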

Compound | mortality at 4 mg/m2 [1] [%] | mortality at 20 mg/m2 [1] [%] | pest or weed control at 32 µg/disc, 100 g/ha (Diabrotica balteata) [%] | pest or weed control at 160 µg/disc, 500 g/ha (Diabrotica balteata) [%] | mortality at 20 mg/m2 [2] [%] | pest or weed control at 0.004 mg (Rhipicephalus microplus [3]) [%] | pest or weed control at 0.02 mg (Rhipicephalus microplus [3]) [%] | pest or weed control at 5 µg/cm2 (Rhipicephalus microplus [4]) [%] | mortality at 100 g/ha (Spodoptera frugiperda) [%] | mortality at 100 ppm (Ctenocephalides felis [5]) [%] | mortality at 4 ppm (Myzus persicae) [%] | mortality at 4 mg/m2 [2] [%] | pest or weed control at 5 µg/cm2 (Ctenocephalides felis [6]) [%] | mortality at 500 g/ha (Spodoptera frugiperda) [%] | pest or weed control at 1 µg/cm2, 100 g/ha (Rhipicephalus sanguineus) [%] | pest or weed control at 5 µg/cm2, 500 g/ha (Rhipicephalus sanguineus) [%] | mortality at 0.8 ppm (Myzus persicae) [%]
CC(NC(=O)c1cc(Cl)cc(C(F)(F)F)c1)c1nc(C(F)F)nn1-c1ccc(C#N)cn1 (racemic) [I-9] | 80 to 100 | 80 to 100 | 100 | 100 | 80 to 100 | 100 | 100 | 100 | 100 | 100 | 100 | – | – | – | – | – | –
CCc1nc([C@H](C)NC(=O)c2cc(Cl)cc(C(F)(F)F)c2)n(-c2ccc(C#N)cn2)n1 [I-3] | 80 to 100 | 80 to 100 | 100 | 100 | 80 to 100 | 100 | 100 | 100 | 100 | – | 90 | 80 to 100 | 100 | 100 | – | – | –
CC(C)c1nc([C@H](C)NC(=O)c2cc(Br)cc(C(F)(F)F)n2)n(-c2ccc(C#N)cn2)n1 [I-20] | – | – | – | – | – | – | – | – | – | – | – | – | 80 | – | – | – | –
CC(C)c1nc([C@H](C)NC(=O)c2cc(Br)cc(Br)c2)n(-c2ccc(C#N)cn2)n1 [I-24] | – | – | 100 | – | – | 100 | 100 | 100 | 100 | 100 | – | – | 80 | – | 100 | 100 | –
C[C@H](NC(=O)c1cc(C#N)cc(C(F)(F)F)c1)c1nc(C2CC2)nn1-c1ccc(C#N)cn1 [I-44] | 80 to 100 | 80 to 100 | 100 | – | 80 to 100 | 100 | – | 100 | 100 | 100 | – | 80 to 100 | – | – | – | – | 90
COc1nc([C@H](C)NC(=O)c2cc(Br)cc(Br)c2)n(-c2ccc(C#N)cn2)n1 [I-61] | – | – | 100 | – | – | 100 | – | 100 | 100 | – | 100 | – | 80 | – | 100 | 100 | –
CC(C)N(C(=O)c1ccc(-n2ncnc2[C@H](C)NC(=O)c2cc(Cl)cc(C(F)(F)F)c2)nc1)C1CC1 [II-29] | 80 to 100 | 80 to 100 | 100 | 100 | – | 100 | 100 | 100 | 83 | 100 | – | – | 100 | 100 | 100 | 100 | –
C[C@H](NC(=O)c1cc(Cl)cc(OC(F)(F)F)c1)c1ncnn1-c1cc(C#N)ccn1 [II-33] | 80 to 100 | 80 to 100 | 100 | 100 | 80 to 100 | 100 | 100 | 100 | 100 | – | 100 | 80 to 100 | 90 | 100 | 80 | 80 | –
CCN(CC)C(=O)c1ccnc(-n2ncnc2[C@H](C)NC(=O)c2cc(C(F)(F)F)cc(C(F)(F)F)c2)c1 [II-85] | – | – | 100 | – | – | – | – | 100 | 83 | – | 100 | – | 100 | – | 100 | 100 | –
C[C@H](NC(=O)c1cc(C(F)(F)F)cc(C(F)(F)F)c1)c1ncnn1-c1cc(C(=O)N(C)CC(F)(F)F)ccn1 [II-88] | – | – | 100 | – | – | – | – | 100 | 100 | – | 100 | – | 100 | – | – | – | –
CC(C)CNC(=O)c1ccnc(-n2ncnc2[C@H](C)NC(=O)c2cc(C(F)(F)F)cc(C(F)(F)F)c2)c1 [II-90] | – | – | – | – | – | – | – | 100 | 83 | – | 100 | – | 80 | – | – | – | –
C[C@H](NC(=O)c1cc(Cl)cc(C(F)(F)F)c1)c1ncnn1-c1cc(-n2ccnc2)ccn1 [II-102] | – | – | – | – | – | 100 | – | 90 | – | 100 | – | – | 80 | – | – | – | –
C[C@H](NC(=O)c1cc(Br)cc(I)c1)c1ncnn1-c1ccc(C#N)cn1 [II-112] | – | – | 100 | – | – | 100 | – | 100 | 100 | 100 | – | – | 80 | – | 100 | 100 | –

From patent US20220274947A1, “NOVEL HETEROARYL-TRIAZOLE COMPOUNDS AS PESTICIDES” (Bayer Aktiengesellschaft, priority 2019, published 2022)
